Results published in ChEMBL document CHEMBL3301472, “MMV Malaria Box HIV and cytotoxicity screening”.

Key:
Type in all cases: toxicity, cell-based
[1] = MMV: MTT Cytotoxicity Assay Day 7 pi of Assay #7 (compound washed out Day 1 pi), U87-CD4-CXCR4 cells, % cell death @ 5mM compound; settings: human, u87-cd4-cxcr4, 5000 µM
[2] = MMV: MTT Cytotoxicity Assay Day 7 pi of Assay #10 (NO washout), U87-CD4-CCR5 cells, % cell death @ 5mM compound; settings: human, u87-cd4-ccr5, 5000 µM
[3] = MMV: MTT Cytotoxicity Assay Day 3 pi, U87-CD4-CCR5 cells, % cell death @ 5mM compound; settings: human, u87-cd4-ccr5, 5000 µM
[4] = MMV: MTT Cytotoxicity Assay Day 3 pi, U87-CD4-CXCR4 cells, % cell death @ 5mM compound; settings: human, u87-cd4-cxcr4, 5000 µM
[5] = MMV: MTT Cytotoxicity Assay Day 7 pi of Assay #6 (compound washed out Day 1 pi), U87-CD4-CCR5 cells, % cell death @ 5mM compound; settings: human, u87-cd4-ccr5, 5000 µM
[6] = MMV: MTT Cytotoxicity Assay Day 7 pi of Assay #11 (NO washout), U87-CD4-CXCR4 cells, % cell death @ 5mM compound; settings: human, u87-cd4-cxcr4, 5000 µM

| Structure (SMILES) | % Cell Death [1] | % Cell Death [2] | % Cell Death [3] | % Cell Death [4] | % Cell Death [5] | % Cell Death [6] |
| --- | --- | --- | --- | --- | --- | --- |
| Oc1ccccc1CN1CCC2(CCCN(Cc3ccccc3F)C2)C1 (centres undefined) | 1 | 44 | -2 | 15 | 36 | 39 |
| Cl.N=c1n(CCN2CCCCC2)c2ccccc2n1CC(O)c1cccc(Br)c1 (centres undefined) | -20 | 11 | 2 | 27 | 10 | 8 |
| COc1cccc(O)c1CN1CCC2(CCCN(Cc3ccc(F)cc3)C2)C1 (centres undefined) | 21 | 7 | -63 | -7 | -1 | 6 |
| COc1cccc(Nc2nc(NCCO)c3ccccc3n2)c1.Cl | -16 | 3 | 15 | -1 | 44 | 46 |
| Cn1c(=O)c2cc(C(=O)NCCCN3CCCCCC3)sc2c2ccccc21 | -51 | 23 | 4 | 29 | 35 | 29 |
| Cc1[nH]c(-c2ccc(F)cc2)cc1C(=O)NC1CCN(Cc2ccccc2)CC1 | 6 | 44 | 65 | 41 | 52 | 29 |
| COc1ccc(CCN2CCC(CN(C)Cc3cnn(-c4ccccc4)c3)CC2)cc1 | 16 | 110 | 33 | 53 | 68 | 93 |
| O=C(NC(c1ccccc1)c1ccc2cccnc2c1O)c1ccccc1 (centres undefined) | -26 | 122 | -19 | 12 | 43 | 39 |
| O=C(NC1CCCC1)c1ccc(N2CCC(NCc3cccc(C(F)(F)F)c3)CC2)cc1 | 7 | -4 | 4 | 35 | -1 | 6 |
| CC(C)=CCN1CCC(C(=O)Nc2ccc(-c3nc4ccccc4[nH]3)cc2)CC1 | 4 | 11 | 10 | 22 | 6 | -26 |
| Cc1ccc(Cl)cc1N1CCN(CCCNC(=O)C2CCN(c3nc4ccccc4[nH]3)CC2)CC1 | -32 | 91 | 86 | 6 | 31 | 57 |
| COc1ccc(CNC2CCN(c3ccc(NC(=O)c4cccc(Cl)c4)cc3)CC2)cc1OC | -21 | 11 | -8 | -2 | 28 | -37 |
| COCCN(C(=O)Cc1cccs1)C(C(=O)NCc1ccc(OC)cc1)c1ccc(C(C)C)cc1 (centres undefined) | -10 | 140 | 13 | 12 | 16 | 68 |
| Oc1ccc(Cl)cc1CNc1nc2ccccc2[nH]1 | -38 | -8 | -44 | 10 | 10 | 24 |
| O=C(c1ccccc1F)N(Cc1ccc(Cl)cc1)c1ccccn1 | -34 | 87 | 50 | 44 | 22 | 71 |
| O=C(Nc1ccc(CN2CCOCC2)cc1)c1ccc(-c2ccc(Br)cc2)o1 | -2 | 96 | 20 | 15 | 14 | 6 |
| CC(=O)NCCc1nc2ccccc2n1Cc1ccc(C(C)C)cc1 | -3 | 13 | -2 | 15 | 34 | 14 |
| Cc1c(C)n(Cc2ccc(F)cc2)c2ccc(C(=O)NCc3ccco3)cc12 | 18 | 146 | 106 | 95 | 78 | 103 |
| CCN(CC)c1ccc(NC(=O)c2cccs2)cc1 | 43 | 106 | 94 | 56 | 18 | 102 |
| CC(C)(C)C(=O)Nc1ccc(C(=O)Nc2cccc(-c3nc4ccccc4[nH]3)c2)cc1 | -22 | 4 | 17 | 20 | 18 | 85 |

| Structure (SMILES) | % Cell Death [1] | % Cell Death [2] | % Cell Death [3] | % Cell Death [4] | % Cell Death [5] | % Cell Death [6] |
| --- | --- | --- | --- | --- | --- | --- |
| COc1ccc(-c2nonc2NC(=O)c2cccc(C)c2)cc1OC | -11 | -7 | 13 | 11 | -21 | -3 |
| COc1cccc(-c2nn(C)c3sc(C(=O)NCCN4CCN(c5ccccc5F)CC4)cc23)c1 | -4 | 33 | 21 | 64 | 2 | 13 |
| Cc1ccc(CN2CCC(C(=O)Nc3ccc(-c4cc5ccccc5[nH]4)cc3)CC2)o1 | 20 | 65 | 33 | 20 | 31 | 22 |
| Cc1ccc(Cn2c(N3CCC(C(=O)NCc4cccs4)CC3)nc3ccccc32)cc1 | 58 | 18 | 5 | 4 | 12 | 78 |
| O=C(Nc1ccc(Cl)cc1C(=O)Nc1ccncc1)c1ccc(Cl)cc1Cl | 75 | 15 | 0 | 21 | 50 | 87 |
| O=C(Nc1cccc(C(F)(F)F)c1)c1cc(Cl)ccc1O | 97 | 124 | 95 | 70 | 100 | 95 |
| CC(C)(C)c1ccc(C(=O)Nc2nc3ccccc3s2)cc1 | -23 | 24 | 1 | 12 | 20 | -30 |
| COc1ccccc1CNC(=O)C1c2ccccc2C(=O)N(CC(C)C)C1c1cccs1 (centres undefined) | -8 | 60 | 108 | 23 | 67 | 43 |
| COc1ccc(C2N(C)c3ccccc3N2C)cc1 | -14 | 3 | -7 | -15 | 16 | 30 |
| CCOc1ccc(/C=C/c2nc(=O)c3ccccc3o2)cc1 | -27 | 21 | 41 | 31 | 27 | 10 |
| CC(C)OCc1cc(CN2CCN(c3cccc(Cl)c3)CC2)c(O)c2ncccc12 | -12 | 125 | 14 | 19 | 19 | 32 |
| O=C(Nc1ccc(F)c(Cl)c1)Nc1ccc(Cl)c(Cl)c1 | -9 | 22 | -19 | 4 | -6 | -12 |
| CCCCc1ccc(NS(=O)(=O)c2cc3c4c(c2)CCN4C(=O)CC3)cc1 | 1 | 85 | 6 | 20 | 47 | 93 |
| CCOc1ccccc1CNC(=O)C1c2ccccc2C(=O)N(CC(C)C)C1c1cccs1 (centres undefined) | -26 | 20 | -26 | 12 | 2 | 4 |
| CCOc1c(Cl)cc(CNC(C)C(O)c2ccccc2)cc1OC (centres undefined) | -15 | 98 | -4 | 22 | 0 | -28 |
| CCCN(CCC)CCCNC(=O)c1cc2c(-c3ccc(OC)c(OC)c3)nn(C)c2s1 | -24 | 100 | 51 | 9 | 59 | 103 |
| O=C(NCC1Cc2cccc(-c3ccncc3)c2O1)c1csc2c1CCCC2 (centres undefined) | -22 | 17 | 4 | 2 | 7 | 60 |
| CC1CCCCN1CCCNC(=O)c1ccc2c(c1)sc1nc(-c3ccc(F)cc3)cn12 (centres undefined) | -50 | -20 | -29 | 0 | 29 | 61 |
| C=C(C)CCC(C)N1CCC(N2CCC(C(=O)NCCc3ccccc3)CC2)CC1 (centres undefined) | -27 | 11 | -11 | 3 | 23 | -11 |
